{
  "source": "ChEMBL document CHEMBL4715821",
  "about": "“Discovery of 4-ethoxy-7H-pyrrolo[2,3-d]pyrimidin-2-amines as potent, selective and orally bioavailable LRRK2 inhibitors” (Bioorg Med Chem Lett, 2018)",
  "key": {"[1]": {"molecular_target": "Mitogen-activated protein kinase 12 (Homo sapiens) (UniProt P53778)", "assay": "Inhibition of wild-type human full length p38-gamma (M1 to L367 residues) expressed in mammalian expression system assessed as residual activity at 1 uM by Kinomescan method relative to control"}, "[2]": {"molecular_target": "Hepatocyte growth factor receptor (Homo sapiens) (UniProt P08581)", "assay": "Inhibition of wild-type human partial length c-MET (D1010 to S1367 residues) expressed in bacterial expression system assessed as residual activity at 1 uM by Kinomescan method relative to control"}, "[3]": {"assay": "Unbound fraction in rat blood", "type": "ADME, tissue-based"}, "[4]": {"molecular_target": "Serine/threonine-protein kinase TAO3 (Homo sapiens) (UniProt Q9H2K8)", "assay": "Inhibition of wild-type human partial length TAOK3 (M1 to T316 residues) expressed in mammalian expression system assessed as residual activity at 1 uM by Kinomescan method relative to control"}, "[5]": {"molecular_target": "Serine/threonine-protein kinase Chk1 (Homo sapiens) (UniProt O14757)", "assay": "Inhibition of CHK1 (unknown origin) assessed as residual activity at 1 uM by Kinomescan method relative to control"}, "[6]": {"molecular_target": "Tyrosine-protein kinase SYK (Homo sapiens) (UniProt P43405)", "assay": "Inhibition of wild-type human partial length SYK (D354 to N635 residues) expressed in bacterial expression system assessed as residual activity at 1 uM by Kinomescan method relative to control"}, "[7]": {"molecular_target": "Death-associated protein kinase 1 (Homo sapiens) (UniProt P53355)", "assay": "Inhibition of wild-type human partial length DAPK1 (M1 to F296 residues) expressed in bacterial expression system assessed as residual activity at 1 uM by Kinomescan method relative to control"}, "[8]": {"molecular_target": "Casein kinase I isoform epsilon (Homo sapiens) (UniProt P49674)", "assay": "Inhibition of CK1epsilon (unknown origin) assessed as residual activity at 1 uM by Kinomescan method relative to control"}, "[9]": {"molecular_target": "Beta-adrenergic receptor kinase 1 (Homo sapiens) (UniProt P25098)", "assay": "Inhibition of wild-type human full length GRK2 (M1 to L689 residues) expressed in mammalian expression system assessed as residual activity at 1 uM by Kinomescan method relative to control"}, "[10]": {"molecular_target": "Serine/threonine-protein kinase tousled-like 2 (Homo sapiens) (UniProt Q86UE8)", "assay": "Inhibition of wild-type human partial length TLK2 (E424 to N749 residues) expressed in bacterial expression system assessed as residual activity at 1 uM by Kinomescan method relative to control"}, "[11]": {"molecular_target": "Inhibitor of nuclear factor kappa-B kinase subunit beta (Homo sapiens) (UniProt O14920)", "assay": "Inhibition of wild-type human full length IKK-beta (M1 to S756 residues) expressed in mammalian expression system assessed as residual activity at 1 uM by Kinomescan method relative to control"}, "[12]": {"molecular_target": "Dual specificity mitogen-activated protein kinase kinase 2 (Homo sapiens) (UniProt P36507)", "assay": "Inhibition of wild-type human full length MEK2 (M1 to V400 residues) expressed in mammalian expression system assessed as residual activity at 1 uM by Kinomescan method relative to control"}, "[13]": {"molecular_target": "Tyrosine-protein kinase Lyn (Homo sapiens) (UniProt P07948)", "assay": "Inhibition of wild-type human partial length LYN (C219 to Q511 residues) expressed in bacterial expression system assessed as residual activity at 1 uM by Kinomescan method relative to control"}, "[14]": {"molecular_target": "Tyrosine-protein kinase Yes (Homo sapiens) (UniProt P07947)", "assay": "Inhibition of wild-type human partial length YES (T257 to L543 residues) expressed in bacterial expression system assessed as residual activity at 1 uM by Kinomescan method relative to control"}, "[15]": {"molecular_target": "Mitogen-activated protein kinase kinase kinase 11 (Homo sapiens) (UniProt Q16584)", "assay": "Inhibition of wild-type human partial length MLK3 (I77 to W399 residues) expressed in bacterial expression system assessed as residual activity at 1 uM by Kinomescan method relative to control"}, "[16]": {"molecular_target": "Serine/threonine-protein kinase pim-1 (Homo sapiens) (UniProt P11309)", "assay": "Inhibition of wild-type human partial length PIM1 (A15 to K313 residues) expressed in bacterial expression system assessed as residual activity at 1 uM by Kinomescan method relative to control"}, "[17]": {"molecular_target": "Ribosomal protein S6 kinase alpha-3 (Homo sapiens) (UniProt P51812)", "assay": "Inhibition of wild-type human partial length N-terminal RSK2 kinase domain 1 (M1 to D394 residues) expressed in mammalian expression system assessed as residual activity at 1 uM by Kinomescan method relative to control"}, "[18]": {"molecular_target": "Proto-oncogene tyrosine-protein kinase ROS (Homo sapiens) (UniProt P08922)", "assay": "Inhibition of wild-type human partial length ROS1 (A1921 to N2240 residues) expressed in bacterial expression system assessed as residual activity at 1 uM by Kinomescan method relative to control"}, "[19]": {"molecular_target": "Protein kinase C gamma type (Homo sapiens) (UniProt P05129)", "assay": "Inhibition of PKCgamma (unknown origin) assessed as residual activity at 1 uM by Kinomescan method relative to control"}, "[20]": {"molecular_target": "Activin receptor type-1 (Homo sapiens) (UniProt Q04771)", "assay": "Inhibition of human wild type partial length ACVR1 (C188 to C509 residues) expressed in bacterial expression system assessed as residual activity at 1 uM by Kinomescan method relative to control"}, "[21]": {"molecular_target": "Insulin receptor-related protein (Homo sapiens) (UniProt P14616)", "assay": "Inhibition of wild-type human partial length INSRR (R950 to E1278 residues) expressed in bacterial expression system assessed as residual activity at 1 uM by Kinomescan method relative to control"}, "[22]": {"molecular_target": "Serine/threonine-protein kinase VRK1 (Homo sapiens) (UniProt Q99986)", "assay": "Inhibition of VRK1 (unknown origin) assessed as residual activity at 1 uM by Kinomescan method relative to control"}, "[23]": {"molecular_target": "CDK1/Cyclin A (Homo sapiens) (UniProt P06493+P20248)", "assay": "Inhibition of wild-type human full length CDK1 (M1 to M297 residues) /Cyclin A expressed in mammalian expression system assessed as residual activity at 1 uM by Kinomescan method relative to control"}, "[24]": {"molecular_target": "Mitogen-activated protein kinase 11 (Homo sapiens) (UniProt Q15759)", "assay": "Inhibition of wild-type human full length p38-beta (M1 to Q364 residues) expressed in bacterial expression system assessed as residual activity at 1 uM by Kinomescan method relative to control"}, "[25]": {"molecular_target": "Serine/threonine-protein kinase ULK1 (Homo sapiens) (UniProt O75385)", "assay": "Inhibition of wild-type human partial length ULK1 (M1 to T309 residues) expressed in mammalian expression system assessed as residual activity at 1 uM by Kinomescan method relative to control"}, "[26]": {"molecular_target": "Mitogen-activated protein kinase kinase kinase 2 (Homo sapiens) (UniProt Q9Y2U5)", "assay": "Inhibition of MEKK2 (unknown origin) assessed as residual activity at 1 uM by Kinomescan method relative to control"}, "[27]": {"molecular_target": "cAMP-dependent protein kinase catalytic subunit gamma (Homo sapiens) (UniProt P22612)", "assay": "Inhibition of PKAcg (unknown origin) assessed as residual activity at 1 uM by Kinomescan method relative to control"}},
  "data": [
    {"smiles": "CCOc1nc(Nc2ccc(C(=O)N3CCOCC3)cc2OC)nc2[nH]ccc12", "values": [
      {"measurement": "Activity", "setting": "[1]", "value": 103, "unit": "%"},
      {"measurement": "Activity", "setting": "[2]", "value": 104, "unit": "%"},
      {"measurement": "fraction unbound", "setting": "[3]", "value": 0.032},
      {"measurement": "Activity", "setting": "[4]", "value": 97.8, "unit": "%"},
      {"measurement": "Activity", "setting": "[5]", "value": 84.5, "unit": "%"},
      {"measurement": "Activity", "setting": "[6]", "value": 92.1, "unit": "%"},
      {"measurement": "Activity", "setting": "[7]", "value": 64.9, "unit": "%"},
      {"measurement": "Activity", "setting": "[8]", "value": 69.6, "unit": "%"},
      {"measurement": "Activity", "setting": "[9]", "value": 100, "unit": "%"},
      {"measurement": "Activity", "setting": "[10]", "value": 92.5, "unit": "%"},
      {"measurement": "Activity", "setting": "[11]", "value": 101, "unit": "%"},
      {"measurement": "Activity", "setting": "[12]", "value": 94.5, "unit": "%"},
      {"measurement": "Activity", "setting": "[13]", "value": 99.7, "unit": "%"},
      {"measurement": "Activity", "setting": "[14]", "value": 94.4, "unit": "%"},
      {"measurement": "Activity", "setting": "[15]", "value": 101, "unit": "%"},
      {"measurement": "Activity", "setting": "[16]", "value": 99.7, "unit": "%"},
      {"measurement": "Activity", "setting": "[17]", "value": 65.1, "unit": "%"},
      {"measurement": "Activity", "setting": "[18]", "value": 52.5, "unit": "%"},
      {"measurement": "Activity", "setting": "[19]", "value": 101, "unit": "%"},
      {"measurement": "Activity", "setting": "[20]", "value": 108, "unit": "%"},
      {"measurement": "Activity", "setting": "[21]", "value": 2.52, "unit": "%"},
      {"measurement": "Activity", "setting": "[22]", "value": 86.7, "unit": "%"},
      {"measurement": "Activity", "setting": "[23]", "value": 91.4, "unit": "%"},
      {"measurement": "Activity", "setting": "[24]", "value": 101, "unit": "%"},
      {"measurement": "Activity", "setting": "[25]", "value": 86.1, "unit": "%"},
      {"measurement": "Activity", "setting": "[26]", "value": 99.3, "unit": "%"},
      {"measurement": "Activity", "setting": "[27]", "value": 110, "unit": "%"}
    ]}
  ]
}
